Laboratory results as given in patent US10576151B2, “Ciclopirox for use in modulation of glucose homeostasis” (UNIVERSITY OF SOUTH CAROLINA, priority 2015, dated 2020).

Tests used:
diabetic mice = settings: cited from earlier work
BiP, GRP94 and CHOP = test: Western blot of ER stress markers in islets in culture; type: cell-based, mouse; settings: islets exposed to increasing amounts of iron citrate alone (FIG. 12A)
Procedure: (§1) Western Blotting. The mouse islets were treated with CPX 20 μM for 24 h and lysed in RIPA buffer [50 mM Tris, pH 7.2; 150 mM NaCl; 1% sodium deoxycholate; 0.1% SDS; 1% Triton-X 100; 10 mM NaF; 1 mM Na3VO4; protease inhibitor cocktail (1:1000, Sigma, St. Louis, Mo.)] and were subjected to immunoblot analysis by standard methods. Proteins were resolved on a 10% SDS-PAGE and transferred to a nitrocellulose membrane (Bio-Rad, Hercules, Calif.). Membranes were probed overnight with GADD153 (F-168), sc-575 from Santa Cruz Biotechnology (1:50); p21 (F-5), sc-6246 from Santa Cruz Biotechnology (1:200); actin, clone C4 MAB1501 from Millipore (Billerica, Mass., USA) (1:2000); BiP antibody (cat. no. 3183) from Cell Signaling (Danvers, Mass., USA) (1:1000); GRP94 antibody (H-212), sc-11402 from Santa Cruz Biotechnology (1:500); insulin rabbit polyclonal H-86, sc-9168 from Santa Cruz Biotechnology (1:500) antibodies followed by incubation with horseradish peroxidase-conjugated (HRP) anti-mouse (1:10000), goat anti-rabbit IgG (1:10000, Santa Cruz biotechnology Inc., Santa Cruz, Calif., USA) for 1 hr. After incubation with enhanced chemiluminescence reagents (Santa Cruz biotechnology Inc.), membranes were analyzed using an Image J software for Windows.
(§2) In order to understand better how CPX operates in β cells, it was tested to determine if it affected the efficiency by which insulin is produced following glucose stimulation. […] In view of the antidiabetic activity of CPX in vivo, the inhibition of insulin release appears contradictory. […]
(§3) While modulation of insulin release by CPX constitutes a challenging mechanism by which CPX may affect ER stress, how CPX regulates insulin expression remains obscure. […] To test this hypothesis, islets were exposed to iron citrate, alone or combined with CPX, and the levels were recorded of chaperones BiP, GRP94 and CHOP, as well as of insulin.

insulin = test: Western blot of insulin levels in islets in culture; type: cell-based, mouse; settings: islets exposed to increasing amounts of iron citrate alone (FIG. 12A)
Procedure: as §1, §2, §3

Row | Molecule | effect on diabetes (diabetic mice; mice, stimulation of p53/p21 activity) | response of diabetes to treatment (diabetic mice; p21-deficient diabetic mice) | ER stress-markers BiP, GRP94 and CHOP (BiP, GRP94 and CHOP) | insulin production (insulin)
1 | COc1ccc(C2=N[C@@H](c3ccc(Cl)cc3)[C@@H](c3ccc(Cl)cc3)N2C(=O)N2CCNC(=O)C2)c(OC(C)C)c1 [nutlin-3a] | beneficial for diabetes in mice | unresponsive to nutlin-3a |  | 
2 | iron citrate |  |  | induced ER stress-markers BiP, GRP94 and CHOP | triggered insulin production
